Data as given in ChEMBL document CHEMBL4393664, “2,4-Disubstituted quinazolines targeting breast cancer cells via EGFR-PI3K” (Eur J Med Chem, 2019).
pIC50: −log10 of the molar value. The source made the active and inactive calls. The rule behind the calls is not given here.

What was measured:
MCF7 [1] = assay: Cytotoxicity against human MCF7 cells assessed as reduction in cell viability after 72 hrs by MTT assay; type: functional, cell-based; conditions: MCF7, 72 h
HGC-27 = assay: Cytotoxicity against human HGC27 cells assessed as reduction in cell viability after 72 hrs by MTT assay; type: functional, cell-based; conditions: HGC-27, 72 h
MGC-803 = assay: Cytotoxicity against human MGC803 cells assessed as reduction in cell viability after 72 hrs by MTT assay; type: functional, cell-based; conditions: MGC-803, 72 h
MDA-MB-231 [2] = assay: Antiproliferative activity against human MDA-MB-231 cells assessed as reduction in cell viability up to 32 uM by MTT assay; type: functional, cell-based; conditions: TDE = time-dependent effect
MDA-MB-231 [3] = assay: Antiproliferative activity against human MDA-MB-231 cells assessed as reduction in cell viability after 24 to 72 hrs by MTT assay; type: functional, cell-based
MCF7 [4] = assay: Antiproliferative activity against human MCF7 cells assessed as reduction in cell viability after 24 to 72 hrs by MTT assay; type: functional, cell-based
MDA-MB-231 [5] = assay: Cell cycle arrest in human MDA-MB-231 cells assessed as accumulation at S phase at 3 uM after 24 hrs by propidium iodide/RNase A staining-based flow cytometric analysis (reference value: 23.07%); type: functional
MDA-MB-231 [6] = assay: Cell cycle arrest in human MDA-MB-231 cells assessed as accumulation at G1 phase at 12 uM after 24 hrs by propidium iodide/RNase A staining-based flow cytometric analysis (reference value: 49.17%); type: functional
MDA-MB-231 [7] = assay: Cell cycle arrest in human MDA-MB-231 cells assessed as accumulation at G2 phase at 12 uM after 24 hrs by propidium iodide/RNase A staining-based flow cytometric analysis (reference value: 27.76%); type: functional
MDA-MB-231 [8] = assay: Cell cycle arrest in human MDA-MB-231 cells assessed as accumulation at S phase at 12 uM after 24 hrs by propidium iodide/RNase A staining-based flow cytometric analysis (reference value: 23.07%); type: functional
MCF7 [9] = assay: Cell cycle arrest in human MCF7 cells assessed as accumulation at G1 phase at 3 uM after 24 hrs by propidium iodide/RNase A staining-based flow cytometric analysis (reference value: 52.21%); type: functional
MCF7 [10] = assay: Cell cycle arrest in human MCF7 cells assessed as accumulation at G2 phase at 3 uM after 24 hrs by propidium iodide/RNase A staining-based flow cytometric analysis (reference value: 30.62%); type: functional
MCF7 [11] = assay: Cell cycle arrest in human MCF7 cells assessed as accumulation at S phase at 3 uM after 24 hrs by propidium iodide/RNase A staining-based flow cytometric analysis (reference value: 17.17%); type: functional
MCF7 [12] = assay: Cell cycle arrest in human MCF7 cells assessed as accumulation at S phase at 6 uM after 24 hrs by propidium iodide/RNase A staining-based flow cytometric analysis (reference value: 17.17%); type: functional
MCF7 [13] = assay: Cell cycle arrest in human MCF7 cells assessed as accumulation at G1 phase at 12 uM after 24 hrs by propidium iodide/RNase A staining-based flow cytometric analysis (reference value: 52.21%); type: functional
MCF7 [14] = assay: Cell cycle arrest in human MCF7 cells assessed as accumulation at G2 phase at 12 uM after 24 hrs by propidium iodide/RNase A staining-based flow cytometric analysis (reference value: 30.62%); type: functional
MDA-MB-231 [15] = assay: Antimigratory activity against human MDA-MB-231 cells assessed as reduction in scratch healing after 72 hrs by microscopy based scratch wound assay; type: functional, cell-based
MDA-MB-231 [16] = assay: Induction of apoptosis in human MDA-MB-231 cells assessed as increase in nuclear lysis up to 8 uM after 48 hrs by DAPI staining-based fluorescence microscopic method; type: functional, cell-based
MDA-MB-231 [17] = assay: Induction of apoptosis in human MDA-MB-231 cells assessed as late apoptotic cells at 2 uM after 48 hrs by Annexin-V-FITC/propidium iodide staining based flow cytometry (reference value: 2.38%); type: functional
MDA-MB-231 [18] = assay: Induction of apoptosis in human MDA-MB-231 cells assessed as necrotic cells at 2 uM after 48 hrs by Annexin-V-FITC/propidium iodide staining based flow cytometry (reference value: 1.21%); type: functional
MDA-MB-231 [19] = assay: Induction of apoptosis in human MDA-MB-231 cells assessed as necrotic cells at 4 uM after 48 hrs by Annexin-V-FITC/propidium iodide staining based flow cytometry (reference value: 1.21%); type: functional
MDA-MB-231 [20] = assay: Induction of apoptosis in human MDA-MB-231 cells assessed as early apoptotic cells at 6 uM after 48 hrs by Annexin-V-FITC/propidium iodide staining based flow cytometry (reference value: 4.33%); type: functional
MDA-MB-231 [21] = assay: Induction of apoptosis in human MDA-MB-231 cells assessed as necrotic cells at 6 uM after 48 hrs by Annexin-V-FITC/propidium iodide staining based flow cytometry (reference value: 1.21%); type: functional
MCF7 [22] = assay: Induction of apoptosis in human MCF7 cells assessed as early apoptotic cells at 6 uM after 48 hrs by Annexin-V-FITC/propidium iodide staining based flow cytometry (reference value: 3.05%); type: functional
MCF7 [23] = assay: Induction of apoptosis in human MCF7 cells assessed as late apoptotic cells at 6 uM after 48 hrs by Annexin-V-FITC/propidium iodide staining based flow cytometry (reference value: 4.28%); type: functional
MDA-MB-231 [24] = assay: Induction of apoptosis in human MDA-MB-231 cells after 48 hrs by Annexin-V-FITC/propidium iodide staining based flow cytometry; type: functional, cell-based
MDA-MB-231 [25] = assay: Induction of apoptosis in human MDA-MB-231 cells assessed as increase in p53 expression at 3 to 12 uM after 48 hrs by Western blot analysis; type: functional, cell-based
[26] = target: Epidermal growth factor receptor (Homo sapiens) (UniProt P00533); assay: Inhibition of EGFR phosphorylation at Y992 residues in human MDA-MB-231 cells after 8 hrs by Western blot analysis; type: cell-based
Sequence of Epidermal growth factor receptor (Homo sapiens) (P00533 whole entry): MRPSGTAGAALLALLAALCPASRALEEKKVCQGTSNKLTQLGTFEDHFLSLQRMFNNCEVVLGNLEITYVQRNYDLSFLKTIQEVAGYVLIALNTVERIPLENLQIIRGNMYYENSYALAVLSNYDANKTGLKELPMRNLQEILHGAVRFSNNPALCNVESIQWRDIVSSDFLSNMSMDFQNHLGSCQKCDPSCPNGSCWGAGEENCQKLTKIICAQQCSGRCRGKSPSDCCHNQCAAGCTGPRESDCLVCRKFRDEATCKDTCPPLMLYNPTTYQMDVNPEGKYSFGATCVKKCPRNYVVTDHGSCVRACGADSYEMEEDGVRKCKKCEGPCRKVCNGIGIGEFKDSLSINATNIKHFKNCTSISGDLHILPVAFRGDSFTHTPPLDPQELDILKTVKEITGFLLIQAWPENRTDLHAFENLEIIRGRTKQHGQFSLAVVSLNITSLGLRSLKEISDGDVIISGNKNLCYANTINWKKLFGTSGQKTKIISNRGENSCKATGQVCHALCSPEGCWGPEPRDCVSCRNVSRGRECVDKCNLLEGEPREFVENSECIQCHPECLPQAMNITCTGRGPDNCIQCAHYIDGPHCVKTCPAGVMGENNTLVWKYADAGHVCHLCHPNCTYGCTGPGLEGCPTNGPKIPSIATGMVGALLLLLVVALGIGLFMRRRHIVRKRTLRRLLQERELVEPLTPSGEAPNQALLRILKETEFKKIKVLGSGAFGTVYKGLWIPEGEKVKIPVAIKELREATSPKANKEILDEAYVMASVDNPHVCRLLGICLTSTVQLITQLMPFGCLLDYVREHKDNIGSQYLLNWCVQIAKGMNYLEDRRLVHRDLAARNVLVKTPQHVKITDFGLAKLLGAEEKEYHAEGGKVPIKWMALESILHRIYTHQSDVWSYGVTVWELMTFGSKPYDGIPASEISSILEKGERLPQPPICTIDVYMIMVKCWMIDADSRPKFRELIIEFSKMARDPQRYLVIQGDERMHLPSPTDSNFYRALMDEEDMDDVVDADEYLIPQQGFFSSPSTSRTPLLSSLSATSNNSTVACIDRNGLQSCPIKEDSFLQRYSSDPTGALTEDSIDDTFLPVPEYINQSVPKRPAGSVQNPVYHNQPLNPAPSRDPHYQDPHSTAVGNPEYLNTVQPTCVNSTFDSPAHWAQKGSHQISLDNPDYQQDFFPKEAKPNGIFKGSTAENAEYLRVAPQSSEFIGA

[27] = target: Epidermal growth factor receptor (Homo sapiens) (UniProt P00533); assay: Inhibition of EGFR in human MDA-MB-231 cells assessed as reduction in phosphorylated PI3K expression after 8 hrs by Western blot analysis; type: cell-based
[28] = target: Epidermal growth factor receptor (Homo sapiens) (UniProt P00533); assay: Inhibition of EGFR in human MCF7 cells assessed as reduction in phosphorylated PI3K expression after 8 hrs by Western blot analysis; type: cell-based
[29] = target: Epidermal growth factor receptor (Homo sapiens) (UniProt P00533); assay: Inhibition of EGFR in human MCF7 cells assessed as reduction in phosphorylated AKT expression after 8 hrs by Western blot analysis; type: cell-based
MDA-MB-231 [30] = assay: Effect on total EGFR protein level in human MDA-MB-231 cells up to 12 uM after 8 hrs by Western blot analysis; type: ADME, cell-based; conditions: mda-mb-231, 8 h
MDA-MB-231 [31] = assay: Effect on total AKT protein level in human MDA-MB-231 cells up to 12 uM after 8 hrs by Western blot analysis; type: ADME, cell-based; conditions: mda-mb-231, 8 h
MCF7 [32] = assay: Effect on total EGFR protein level in human MCF7 cells up to 12 uM after 8 hrs by Western blot analysis; type: ADME, cell-based; conditions: mcf7, 8 h
MCF7 [33] = assay: Effect on total AKT protein level in human MCF7 cells up to 12 uM after 8 hrs by Western blot analysis; type: ADME, cell-based; conditions: mcf7, 8 h
[34] = target: Epidermal growth factor receptor (Homo sapiens) (UniProt P00533); assay: Inhibition of EGFR phosphorylation at Y1045 residues in human MDA-MB-231 cells after 8 hrs by Western blot analysis; type: cell-based
[35] = target: Epidermal growth factor receptor (Homo sapiens) (UniProt P00533); assay: Inhibition of EGFR phosphorylation at Y1045 residues in human MCF7 cells after 8 hrs by Western blot analysis; type: cell-based

FC(F)(F)c1ccc(CSc2nc(Nc3ccc(C(F)(F)F)cc3)c3ccccc3n2)cc1
pIC50 (MCF7 [1]): 5.29
pIC50 (HGC-27): 5.12
pIC50 (MGC-803): 5.21
Activity (MDA-MB-231 [2]): Tde
Activity (MDA-MB-231 [3]): Dose-dependent effect
Activity (MCF7 [4]): Dose-dependent effect
Activity (MDA-MB-231 [5]): 18.96%
Activity (MDA-MB-231 [6]): 69.54%
Activity (MDA-MB-231 [7]): 11.69%
Activity (MDA-MB-231 [8]): 18.77%
Activity (MCF7 [9]): 59.18%
Activity (MCF7 [10]): 20.38%
Activity (MCF7 [11]): 20.44%
Activity (MCF7 [12]): 19.52%
Activity (MCF7 [13]): 75.03%
Activity (MCF7 [14]): 14.32%
Activity (MDA-MB-231 [15]): Dose-dependent effect
Activity (MDA-MB-231 [16]): Active
Activity (MDA-MB-231 [17]): 7.92%
Activity (MDA-MB-231 [18]): 2.6%
Activity (MDA-MB-231 [19]): 3.06%
Activity (MDA-MB-231 [20]): 10.4%
Activity (MDA-MB-231 [21]): 2.49%
Activity (MCF7 [22]): 17.1%
Activity (MCF7 [23]): 10.6%
Activity (MDA-MB-231 [24]): Dose-dependent effect
Activity (MDA-MB-231 [25]): Active
inhibition [26]: Dose-dependent effect
inhibition [27]: Dose-dependent effect
inhibition [28]: Dose-dependent effect
inhibition [29]: Dose-dependent effect
Activity (MDA-MB-231 [30]): Non-Toxic
Activity (MDA-MB-231 [31]): Non-Toxic
Activity (MCF7 [32]): Non-Toxic
Activity (MCF7 [33]): Non-Toxic
inhibition [34]: Dose-dependent effect
inhibition [35]: Dose-dependent effect
